Reference: patent US6642398B2, “Mono-and disubstituted 3-propyl gamma-aminobutyric acids” (Warner-Lambert Company, priority 1999, dated 2003)
Where a name gives a salt, the structure may show the parent alone. Read-outs that look alike come from different tables or passages of the source.

Tests used:
DBA/2 mice = assay: Anticonvulsant % Protect (DBA2 mouse model of anticonvulsant efficacy); assay type: in vivo; conditions: for responders at 30 mg/kg: Mus musculus
Protocol: All procedures were carried out in compliance with the NIH Guide for the Care and Use of Laboratory Animals under a protocol approved by the Parke-Davis Animal Use Committee. Male DBA/2 mice, 3 to 4 weeks old were obtained from Jackson Laboratories, Bar Harbour, Me. Immediately before anticonvulsant testing, mice were placed upon a wire mesh, 4 inches square, suspended from a steel rod. The square was slowly inverted through 180° and mice observed for 30 seconds. Any mouse falling from the wire mesh was scored as ataxic (Coughenour L. L., McLean J. R., Parker R. B., “A new device for the rapid measurement of impaired motor function in mice,” Pharm. Biochem. Behav., 1977;6(3):351-3). Mice were placed into an enclosed acrylic plastic chamber (21 cm height, approximately 30 cm diameter) with a high-frequency speaker (4 cm diameter) in the center of the top lid. An audio signal generator (Protek model B-810) was used to produce a continuous sinusoidal tone that was swept linearly in frequency between 8 kHz and 16 kHz once each 10 msec. The average sound pressure level (SPL) during stimulation was approximately 100 dB at the floor of the chamber. Mice were placed within the chamber and allowed to acclimatize for one minute. DBA/2 mice in the vehicle-treated group responded to the sound stimulus (applied until tonic extension occurred, or for a maximum of 60 sec) with a characteristic seizure sequence consisting of wild running followed by clonic seizures, and later by tonic extension, and finally by respiratory arrest and death in 80% or more of the mice. In vehicle-treated mice, the entire sequence of seizures to respiratory arrest lasts approximately 15 to 20 seconds. The incidence of all the seizure phases in the drug-treated and vehicle-treated mice was recorded, and the occurrence of tonic seizures were used for calculating anticonvulsant ED50 values by probit analysis (Litchfield J. T., Wilcoxon F. “A simplified method for evaluating dose-effect experiments,” J. Pharmacol., 1949;96:99-113). Mice were used only once for testing at each dose point. Groups of DBA/2 mice (n=5-10 per dose) were tested for sound-induced seizure responses 2 hours (previously determined time of peak effect) after given drug orally. All drugs in the present study were dissolved in distilled water and given by oral gavage in a volume of 10 mL/kg of body weight. Compounds that are insoluble will be suspended in 1% carboxymethocellulose. Doses are expressed as weight of the active drug moiety.

[1] = 30 mg/kg PO, 1 h, read-out: Anticonvulsant % Protect 1 h
[2] = 30 mg/kg PO, 2 h, read-out: Anticonvulsant % Protect 2 h

SMILES | responders at 30 mg/kg (DBA/2 mice; [1]) [%] | responders at 30 mg/kg (DBA/2 mice; [2]) [%] | further results
CCC(CC)CC(CN)CC(=O)O (stereo not drawn) |  |  | Anticonvulsant % Protect 2 hr (DBA/2 mice; Table 1, 2 hr): 20%
CCCC(C(C)C)C(CN)CC(=O)O (stereo not drawn) (as salt: HCl) [3-aminomethyl-4-isopropyl-heptanoic acid, 3-Aminomethyl-4-isopropyl-heptanoic acid] |  |  | melting point: 160 to 170 °C
CC(C)[C@@H](C)[C@H](CN)CC(=O)O [(3R,4R)-3-Aminomethyl-4,5-dimethyl-hexanoic acid] | 100 | 100 | 
CC(C)[C@H](C)[C@H](CN)CC(=O)O [(3R,4S)-3-Aminomethyl-4,5-dimethyl-hexanoic acid] | 20 | 0 | 
CC(C)[C@@H](C)[C@@H](CN)CC(=O)O [(3S,4R)3-Aminomethyl 4,5-dimethyl-hexanoic acid] | 20 | 20 | 
CC[C@@H](C)C[C@H](CN)CC(=O)O [(3S,5R)-3-Aminomethyl-5-methyl-heptanoic acid] | 80 |  | 
CC[C@H](C)C[C@H](CN)CC(=O)O [(3S,5S)-3-Aminomethyl-5-methyl-heptanoic acid] | 0 | 0 | 
CC(C)C[C@H](CN)CC(=O)O [Pregabalin, (S)-3-(Aminomethyl)-5-methylhexanoic acid, reference compound] |  |  | Anticonvulsant % Protect 2 h (DBA/2 mice; 30 mg/kg PO, 2 h): 100%
